# Measured values as given in patent US20170363646A1, “METHOD FOR DETECTING MOLECULES THAT INHIBIT THE INTERACTION OF CD36 PROTEIN WITH AMYLOID BETA” (Instituto de Investigaciones Cientificas y Servicios de …, priority 2015, published 2017).
# What was measured:
# [1] = target: interaction between CD36 and fAβ1-42 (Homo sapiens, UniProt P16671); details: cell-based assay, previously demonstrated (17); cited from earlier work
# [2] = system: microglial cell line; details: previously demonstrated (17); cited from earlier work
# [3] = target: T1, interaction between rCD36 and fAβ1-42 (Homo sapiens, UniProt P16671); test: colorimetric rCD36-fAβ1-42 interaction assay on polystyrene plate; type: binding; details: added 30 minutes prior to fAβ1-42 and maintained, p<0.05 by t-test, FIG. 7
# T1 construct: the extracellular domain of the CD36 protein, corresponding to Gly30-Asn439; 6xHis (C); made in house; host or cells: Escherichia coli BL21 (DE3), pET30-CD36; purified by IMAC under denaturing conditions and renatured in PBS
# Excerpt: The invention consists in the development of a rapid colorimetric procedure that through the adhesion of the recombinant protein CD36 to a polystyrene plate enables the evaluation of molecules that can inhibit the interaction of such protein and the amyloid beta. The process or method of this invention is based on the interaction of A) recombinant extracellular portion of the CD36 protein with B) the Aβ peptide in its fibril state. […] The presence of compounds that inhibit the ligand-receptor interaction in the reaction produces a reduction of the colorimetric signal generated after the addition of the substrate (FIG. 1). The fibrillar Aβ is prepared on the basis of the synthetic peptide incubated at 37° C., in distilled water. The fibrils are prepared by controlling the polymerization of the monomers, which is monitored through the Thioflavin T fluorescent assay (11). […]
# Considering that the vast majority of the natural or synthetic compounds that will be tested in the screening phase are diluted in Dimethyl Sulfoxide (DMSO), the tolerance of the assay to this solvent was evaluated. First, the assay sensitivity was evaluated at a concentration of 0.1% DMSO in conjugated serial dilutions where concentrations of rCD36 and fAβ1-42 varied, similar to the description given in example 2 (FIG. 3). […] Later, the tolerance of the assay was evaluated at different doses of DMSO. […]
# T1 sequence (P16671 30-439): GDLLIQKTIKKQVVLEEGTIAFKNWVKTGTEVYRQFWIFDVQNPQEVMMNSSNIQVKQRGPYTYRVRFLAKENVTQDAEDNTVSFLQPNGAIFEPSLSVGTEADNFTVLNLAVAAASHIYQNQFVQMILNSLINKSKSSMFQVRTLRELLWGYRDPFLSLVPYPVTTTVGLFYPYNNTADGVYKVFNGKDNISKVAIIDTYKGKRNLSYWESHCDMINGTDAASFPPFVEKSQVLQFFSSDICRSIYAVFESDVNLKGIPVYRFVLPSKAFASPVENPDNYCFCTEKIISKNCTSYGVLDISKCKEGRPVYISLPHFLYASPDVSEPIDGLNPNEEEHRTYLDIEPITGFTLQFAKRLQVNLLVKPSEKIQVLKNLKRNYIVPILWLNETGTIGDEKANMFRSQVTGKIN
# Chain of interaction between CD36 and fAβ1-42 (P16671 whole entry): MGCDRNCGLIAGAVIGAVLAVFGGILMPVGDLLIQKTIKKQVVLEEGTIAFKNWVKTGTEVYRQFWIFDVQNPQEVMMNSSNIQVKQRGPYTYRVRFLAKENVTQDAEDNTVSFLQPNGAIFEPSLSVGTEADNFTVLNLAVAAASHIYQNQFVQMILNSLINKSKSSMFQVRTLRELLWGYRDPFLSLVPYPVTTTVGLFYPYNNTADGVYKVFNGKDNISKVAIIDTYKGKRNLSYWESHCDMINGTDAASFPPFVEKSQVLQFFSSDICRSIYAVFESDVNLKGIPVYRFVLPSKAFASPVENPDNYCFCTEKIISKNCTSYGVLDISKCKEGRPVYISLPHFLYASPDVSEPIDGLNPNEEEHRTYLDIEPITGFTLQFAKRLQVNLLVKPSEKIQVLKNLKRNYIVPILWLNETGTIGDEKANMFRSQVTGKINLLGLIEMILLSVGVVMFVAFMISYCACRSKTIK
compound,measurement,setting,value
C[C@H]1[C@H](C)CC[C@]2(C(=O)O)CC[C@]3(C)C(=CC[C@@H]4[C@@]5(C)CC[C@H](O)C(C)(C)[C@@H]5CC[C@]43C)[C@H]12 [ursolic acid],inhibition of the interaction between CD36 and fAβ1-42,[1],inhibits such interaction
same,effect on Aβ-induced nitric oxide production,[2],this inhibition impacts on the Aβ-induced nitric oxide production
same,decrease of the interaction between rCD36 and fAβ1-42,[3]; ursolic acid 100 μM,significant decrease
same,decrease of the interaction between rCD36 and fAβ1-42,[3]; ursolic acid 200 μM,significant decrease
